Measurements published in US11414429B2, “Compound or pharmaceutically acceptable salt thereof” (RIKEN, priority 2016, dated 2022).
Read-outs that look alike come from different tables or passages of the source.

What was measured:
[1] = target: T1, tankyrase 1 (TNKS 1) (Homo sapiens, UniProt O95271); test: Tankyrase inhibitory activity test (ELISA, self-polyADP ribosylation), tankyrase 1; type: biochemical; settings: self-polyADP ribosylation
T1 construct: 1,024-1,327aa; made in house; host or cells: cell-free protein synthesis system
T1 sequence (O95271 1024-1327): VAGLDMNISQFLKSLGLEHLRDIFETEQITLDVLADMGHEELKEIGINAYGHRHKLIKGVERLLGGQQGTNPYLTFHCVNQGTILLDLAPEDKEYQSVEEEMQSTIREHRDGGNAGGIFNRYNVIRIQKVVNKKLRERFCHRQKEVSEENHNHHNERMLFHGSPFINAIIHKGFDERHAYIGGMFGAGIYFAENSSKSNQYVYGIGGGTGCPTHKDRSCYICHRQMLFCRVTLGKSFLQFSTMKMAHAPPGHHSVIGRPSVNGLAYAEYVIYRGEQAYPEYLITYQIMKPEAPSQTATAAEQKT
Experimental: (§1) (Test Example 1) Tankyrase Inhibitory Activity Test
(§2) For each of the compounds obtained in Examples (the test target compounds), the tankyrase inhibitory activity (an inhibitory activity against tankyrase 1 (TNKS 1) and an inhibitory activity against tankyrase 2 (TNKS 2)) was evaluated by measuring the enzymatic activity of tankyrase 1 and the enzymatic activity of tankyrase 2 by the ELISA technique using self-polyADP ribosylation as an index. First, Flag-tag fusion tankyrase 1 (1,024-1,327aa, SAM+PARP) and tankyrase 2 (613-1, 116aa, ANK5+SAM+PARP) were each synthesized by a cell-free protein synthesis system and diluted with a Tris buffer (50 mM Tris-HCl (pH 8.0), 150 mM NaCl, 10% glycerol). Then, 50 μL of the diluted tankyrase 1 or tankyrase 2 was added to a plate on which the anti-FLAGM 2 monoclonal antibody was immobilized (Anti-FLAG high sensitivity M2 coated plate) (SIGMA Corporation), and was allowed to stand at 4° C. overnight. Thereafter, the plate was washed four times with a PBS buffer containing 0.1% Triton X-100 (PBST buffer).
(§3) Subsequently, the test target compound diluted with an assay buffer (50 mM Tris-HCl (pH 8.0), 4 mM MgCl2, 0.2 mM DTT) (using DMSO as a control) was added to each well of the plate and was allowed to stand at room temperature for 10 minutes. Thereafter, a biotin-labeled NAD solution (225 μM NAD, 25 μM 6-Biotin-17-NAD (Trevigen Inc.)) was added as a donor substrate and mixed with the resultant test target compound, and the reaction was allowed to proceed at 30° C. for 45 minutes. Instead of the biotin-labeled NAD solution, distilled water was added to blank wells. After the reaction, the plate was washed four times with the PBST buffer. Thereafter, HRP (horseradish peroxidase)-labeled streptavidin (Trevigen Inc.) diluted 1,000-fold with the PBS buffer was added to each well, and the reaction was allowed to proceed at room temperature for 20 minutes. After the plate was washed four times with the PBST buffer, a chemiluminescent substrate solution TACS-Sapphire (Trevigen Inc.) was added to each well and the reaction was allowed to proceed at room temperature for 20 minutes. Then, the chemiluminescence intensity was measured using a chemiluminescence measuring apparatus.
(§4) The residual enzyme activity in the presence of the test target compound was determined in accordance with the following formula. Based on the residual enzyme activity at multiple concentrations of the test target compound, an enzyme inhibition activity was calculated as a 50% inhibitory concentration (IC50 value) using data analysis software named Origin (LightStone Corp.).

[2] = target: T2, tankyrase 2 (TNKS 2) (Homo sapiens, UniProt Q9H2K2); test: Tankyrase inhibitory activity test (ELISA, self-polyADP ribosylation), tankyrase 2; type: biochemical; settings: self-polyADP ribosylation
T2 construct: 613-1, 116aa; made in house; host or cells: cell-free protein synthesis system
T2 sequence (Q9H2K2 613-1166): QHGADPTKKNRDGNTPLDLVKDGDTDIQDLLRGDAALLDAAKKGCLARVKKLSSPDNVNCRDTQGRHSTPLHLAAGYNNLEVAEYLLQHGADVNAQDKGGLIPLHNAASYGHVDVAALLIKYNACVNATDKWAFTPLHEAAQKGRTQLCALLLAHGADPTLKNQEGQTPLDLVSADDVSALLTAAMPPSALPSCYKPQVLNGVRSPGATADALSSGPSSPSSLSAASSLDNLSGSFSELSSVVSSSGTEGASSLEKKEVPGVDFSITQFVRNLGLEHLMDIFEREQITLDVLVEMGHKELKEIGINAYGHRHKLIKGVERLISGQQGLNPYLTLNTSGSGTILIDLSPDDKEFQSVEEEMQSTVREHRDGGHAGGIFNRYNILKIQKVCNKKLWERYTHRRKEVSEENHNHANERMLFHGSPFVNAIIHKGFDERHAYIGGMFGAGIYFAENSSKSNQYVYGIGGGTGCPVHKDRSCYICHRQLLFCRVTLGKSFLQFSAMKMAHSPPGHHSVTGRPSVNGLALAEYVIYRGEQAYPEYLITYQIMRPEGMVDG
Experimental: as §1, §2, §3, §4

[3] = tested on: human colorectal cancer cell line, COLO-320DM; test: Cell proliferation inhibitory activity test (Celltiter-Glo Luminescent Cell Viability Assay); type: cell-based; settings: COLO-320DM cells, 96 hours
Experimental: (Test Example 2) Cell Proliferation Inhibitory Activity Test
The cell proliferation inhibitory activity of the compound obtained in each of Examples against human colorectal cancer cell line, COLO-320DM was evaluated by Celltiter-Glo Luminescent Cell Viability Assay (Promega Corporation, G7573). The COLO-320 DM cells were cultured in a RPMI-1640 medium (Wako Pure Chemical Industries, Ltd., 189-02025) containing 10% fetal bovine serum and 2 mM of glutamine. The cultured cells were washed with PBS and then detached with trypsin/EDTA to prepare a cell solution containing 3×10^4 cells/mL.
Next, the cell solution was seeded in a 96 well microplate (Thermo/Nunc, 136101) in an amount of 70 μL/well and was cultured overnight under conditions at 37° C. with 5% CO2. On the next day, 10 μL/well of a solution in which the test target compound (DMSO solution) was diluted with the cell culture medium (a final DMSO concentration of 1%) was added and the reaction was allowed to proceed under conditions at 37° C. with 5% CO2 for 96 hours (a 1% DMSO solution was used as a control). Subsequently, 80 μL/well of Celltiter-Glo Luminescent Cell Viability Assay reagent (Promega Corporation, G7573) was added, followed by agitation for 2 minutes with a shaker under shielding with aluminum foil. Thereafter, the resultant solution was allowed to stand for reaction at room temperature for 10 minutes.
After that, the luminescent signal was measured with a luminometer (Biotech, Synergy). The cell proliferation inhibitory activity was evaluated by obtaining a percentage of a cell proliferation volume of each compound-added group with respect to a cell proliferation volume (100%) of a control group in which no test target component solution was added, and calculating a value of compound concentration (GI50) required to reduce the remaining cell volume to 50% of the remaining cell volume of the control. […] The results are shown in Tables 120 to 123 together with the results of the tankyrase inhibition activity test.

[4] = tankyrase 1, ELISA, read-out: TNKS1 inhibitory activity (IC50 class)
[5] = tankyrase 2, ELISA, read-out: TNKS2 inhibitory activity (IC50 class)
[6] = read-out: COLO-320 DM cell proliferation inhibitory activity (GI50 class)
[7] = ELISA, class symbols, read-out: TNKS1 (inhibitory activity against tankyrase 1, IC50 value)
[8] = ELISA, class symbols, read-out: TNKS2 (inhibitory activity against tankyrase 2, IC50 value)
[9] = class symbols, read-out: COLO-320 DM (cell proliferation inhibitory activity, GI50 value)

| IC50 [1, 4] [µM] | IC50 [2, 5] [µM] | GI50 [3, 6] [µM] | IC50 [1, 7] [µM] | IC50 [2, 8] [µM] | GI50 [3, 9] [µM] | SMILES |
| --- | --- | --- | --- | --- | --- | --- |
| < 0.02 | < 0.02 | 0.1 to 0.6 |  |  |  | CN1CCCc2c1nc(N1CCC3(CC1)C(=O)Nc1cccc(F)c13)[nH]c2=O [Example 185, 2-(4-fluoro-2-oxospiro [indoline-3,4′-piperidin]-1′-yl)-8-methyl-5,6,7,8-tetrahydro-pyrido[2,3-d] pyrimidine-4(3H)-one] |
|  |  |  | 0.02 to 0.2 | < 0.02 | 0.1 to 0.6 | CN1CCN(c2cc(F)c3c(c2)N(CC#N)C(=O)C32CCN(c3nc4c(c(=O)[nH]3)CCCN4C)CC2)CC1 [Example 402, [4-fluoro-1′-(8-methyl-4-oxo-3,4,5,6,7,8-hexahydropyrido [2,3-d]py-rimidin-2-yl)-6-(4-methyl-piperazin-1-yl)-2-oxo-spiro[indoline-3,4′-piperidin]-1(2H)-yl] acetonitrile] |
| < 0.02 | < 0.02 | 0.1 to 0.6 |  |  |  | CN1CCN(CCOc2cc(F)c3c(c2)N(C)C(=O)C32CCN(c3nc4c(c(=O)[nH]3)CCCN4C)CC2)CC1 [Example 362, 4-fluoro-1-methyl-1′-(8-methyl-4-oxo-3,4,5,6,7,8-hexahydropy-rido[2,3-d]pyrimidin-2-yl)-6-[2-(4-methyl-piperazin-1-yl)ethoxy] spiro[indoline-3,4′-piperidin]-2-one] |
|  |  |  | < 0.02 | < 0.02 | 0.6 to 1 | COCCN1C(=O)C2(CCN(c3nc4c(c(=O)[nH]3)CCCN4C)CC2)c2c(F)cc(OCC(=O)O)cc21 [Example 409] |
| < 0.02 | < 0.02 | < 0.1 |  |  |  | CN1CCCc2c1nc(N1CCC3(CC1)C(=O)N(C)c1cc(OC4CCOCC4)cc(F)c13)[nH]c2=O [Example 389, 4-fluoro-1-methyl-1′-(8-methyl-4-oxo-3,4,5,6,7,8-hexahydropyrido [2,3-d]pyrimidin-2-yl)-6-[(tetrahydro-2H-pyran-4-yl)oxy]spiro [indoline-3,4′-piperidin]-2-one] |
| < 0.02 | < 0.02 | < 0.1 |  |  |  | CN1CCCc2c1nc(N1CCC3(CC1)C(=O)N(CC#N)c1cc(F)cc(F)c13)[nH]c2=O [Example 374, 2-(4,6-difluoro-1′-(8-methyl-4-oxo-3,4,5,6,7,8-hexahydropyrido [2,3-d]pyrimidin-2-yl)-2-oxospiro[indoline-3,4′-piperidin]-1-yl)acetonitrile] |
|  |  |  | 0.02 to 0.2 | 0.02 to 0.2 | 0.6 to 1 | CN1CCCc2c1nc(N1CCC3(CC1)C(=O)N(CC(F)(F)F)c1cc(OCCN4CCCC4)cc(F)c13)[nH]c2=O [Example 404, 4-fluoro-1′-(8-methyl-4-oxo-3,4,5,6,7,8-hexa hydropyrido [2,3-d]pyrimidin-2-yl)-6-[2-(pyrroli-din-1-yl)ethoxy]-1-(2,2,2-trifluoroethyl) spiro [indoline-3,4′-piperidin]-2(1H)-one] |
|  |  |  | < 0.02 | < 0.02 | 0.1 to 0.6 | CN1CCCc2c1nc(N1CCC3(CC1)C(=O)N(C)c1cc(OCc4nnn[nH]4)cc(F)c13)[nH]c2=O [Example 393, 6-[(1H-tetrazol-5-yl)methoxy]-4-fluoro-1-methyl-1′-(8-methyl-4-oxo-3,4,5,6,7,8-hexahydropyrido [2,3-d]pyrimidin-2-yl)spiro [indoline-3,4′-piperidin]-2(1H)-one] |
| < 0.02 | < 0.02 | 0.1 to 0.6 |  |  |  | COCCOc1cc(F)c2c(c1)N(C)C(=O)C21CCN(c2nc3c(c(=O)[nH]2)CCCN3C)CC1 [Example 366, 4-fluoro-6-(2-methoxy)-1-methyl-1′-(8-methyl-4-oxo-3,4,5,6,7,8-hexahydropy-rido[2,3-d]pyrimidin-2-yl)spiro [indoline-3,4′-piperidin]-2-one] |
| < 0.02 | < 0.02 | 0.1 to 0.6 |  |  |  | COCCOc1cc(F)c2c(c1)N(CCO)C(=O)C21CCN(c2nc3c(c(=O)[nH]2)CCCN3C)CC1 [Example 383, 4-fluoro-1-(2-hydroxy-ethyl)-6-(2-methoxyethoxy-1′-(8-methyl-4-oxo-3,4,5,6,7,8-hexahydropyrido [2,3-d]pyrimidin-2-yl))spiro [indoline-3,4′-piperidin]-2-one] |
|  |  |  | < 0.02 | < 0.02 | 0.1 to 0.6 | CN1CCCc2c1nc(N1CCC3(CC1)C(=O)N(C)c1cc(OCS(N)(=O)=O)cc(F)c13)[nH]c2=O [Example 454, 1-{[4-fluoro-1-meth-yl-1′-(8-methyl-4-oxo-3,4,5,6,7,8-hexahydropyrido [2,3-d]pyrimidin-2-yl)-2-oxospiro[indole-3,4′-piperidine]-6-yl]oxy}meth-anesulfonamide] |
| < 0.02 | < 0.02 | 0.1 to 0.6 |  |  |  | O=c1[nH]c(N2CCC3(CC2)CN(Cc2cccnc2)c2cc(F)cc(F)c23)nc2c1CCCC2 [Example 251, 2-[4,6-difluoro-1-(pyridin-3-yl)methyl-spiro [indoline-3,4′-piperidin]-1′-yl]-5,6,7,8-tetrahydro-quinazolin-4(3H)-one] |

| SMILES | IC50 [1, 4] [µM] | IC50 [2, 5] [µM] | GI50 [3, 6] [µM] | IC50 [1, 7] [µM] | IC50 [2, 8] [µM] | GI50 [3, 9] [µM] |
| --- | --- | --- | --- | --- | --- | --- |
| CN1C(=O)C2(CCN(c3nc4c(c(=O)[nH]3)CCCN4)CC2)c2c(Cl)ccc(OC3CCOC3)c21 (stereo not drawn) [Example 438, 4-chloro-1′-(4-oxo-3,4,5,6,7,8-hexahydro-pyrido[2,3-d]pyrimidin-2-yl)-1-methyl-7-(oxo-lan-3-yloxy)spiro [indole-3,4′-piperidine]-2-one] |  |  |  | < 0.02 | < 0.02 | 0.6 to 1 |
| COc1ccc(Cl)c2c1N(CC(F)(F)F)C(=O)C21CCN(c2nc3c(c(=O)[nH]2)CCCN3)CC1 [Example 443, 4-chloro-1′-(4-hy-droxy-3,5,6,7,8-tetra-hydropyrido[2,3-d]pyrimidin-2-yl)-7-methoxy-1-(2,2,2-trifluoroeth-yl)spiro[indole-3,4′-piperidine]-2-one] |  |  |  | < 0.02 | < 0.02 | 0.6 to 1 |
| COc1ccc(F)c2c1N(CC(C)(C)O)CC21CCN(c2nc3c(c(=O)[nH]2)CCCN3)CC1 [Example 473, 2-(4-fluoro-1-(2-hydroxy-2-methylpropyl)-7-methoxyspiro[indoline-3,4′-piperidin]-1′-yl)-5,6,7,8-tetrahydropyeido[2,3-d]pyrimidin-4(3H)-one] |  |  |  | 0.02 to 0.2 | < 0.02 | 0.6 to 1 |
| CN1CCCc2c1nc(N1CCC3(CC1)C(=O)N(C)c1cc(N4CC5CCC(C4)N5)cc(F)c13)[nH]c2=O [Example 391, 6-(3,8-diazabicyclo [3.2.1]octan-3-yl)-4-fluoro-1-methyl-1′-(8-methyl-4-oxo-3,4,5,6,7,8-hexahydro-pyrido[2,3-d]pyrimidin-2-yl) spiro[indoline-3,4′-piperidin]-2(1H)-one] |  |  |  | < 0.02 | < 0.02 | 0.6 to 1 |
